“Also recorded” adds a separate entry of the source.

One data set relates to T47D. Kind of data set: Colony formation assay, T47D. In kind it is cell-based, human. Particulars: for IC50: Homo sapiens, 48 h, read-out: IC50 (concentration required to decrease colony formation by 50%). As for the experimental part:
Depending on the cell line (and plating efficiency), 200-350 cells were seeded into each well of a 6-well plate. […] Thereafter, the drugs were removed, fresh growth medium was added, and the cells were kept in culture undisturbed for 12-16 days, during which time the surviving cells spawned colonies of descendants. Colonies (defined as groups of >50 cells) were visualized by staining for 4 hours with 1% methylene blue (in methanol), and then were counted.
The cytotoxic potency of TMZ-POH, was analyzed by colony formation assay (CFA) in a variety of human breast cancer cell lines and compared to the cytotoxicity of TMZ. We used estrogen receptor positive cells MCF7 and T47D, the triple-negative lines MDA-MB-231, MDA-MB-468, and HCC-1937, and a brain-seeking variant of the 231 cell line, MDA-MB-231-br.

For the next data set, the system named is MDA-MB-231 cells. Kind of data set: Determination of drug stability by colony formation assay. The data set is classed as cell-based, human. Particulars: for colony survival: drugs in the medium for 24 hours; for reduction of colony formation: one-hour exposure; for survival: two-hour exposure; for reduction of survival: added straight to cells, 24 hours; for colony-forming ability of receiving cells: supernatant transferred after prior one-hour incubation. As for the experimental part:
FIGS. 26A-26C depicts determination of drug stability, where MDA-MB-231 cells were analyzed in colony formation assays. In FIG. 26A, cells were treated with 15 μM TMZ-POH or 30 μM TMZ for 30 min or 1, 2, 4, and 24 hours. Thereafter, drug-containing medium was removed, fresh medium (without drug) was added, and cells remained undisturbed until colony staining 12 days later. The arrows indicate which cells received which supernatant. After 24 hours of incubation, all drug-containing medium was removed, fresh medium (without drug) was added, and cells remained undisturbed until colony staining 12 days later. […] Left panel (untreated): control cells without drug treatment. Middle panel (0-24 h): Cells received 15 μM TMZ-POH or 30 μM TMZ for 24 hours. Right panel (1-25 h): TMZ-POH and TMZ were incubated in neutral buffer at 37° C. for 1 hour before addition to cells to a final concentration of 15 μM TMZ-POH and 30 μM TMZ for 24 hours.
TMZ is a prodrug, and it is well known that its activation takes place spontaneously in aqueous solution at 37° C. (i.e., no cellular functions are required for this conversion). As well, the half-lives of both prodrug and active product are fairly short, where all cytotoxic triggers are set within the first few hours of treatment. […] First, we exposed cells to variably short periods of drug treatment, washed off the drug, and then continued to keep cells in medium without drug to determine survival and colony-forming ability. For most of these experiments, we used 15 μM TMZ-POH and 30 μM TMZ, because these concentrations are approximately equipotent in the >90% cytotoxicity range (when measured by CFAs and a drug exposure time of 24 hours).
Thus, TMZ acted more quickly than TMZ-POH; it required only 4 hours to exert maximum toxicity, whereas TMZ-POH had not yet reached its maximum impact at this time point.
We next modified this experiment as follows. After cells had been exposed to drug treatment for the specific times shown in FIG. 26A, we removed the medium containing the drug from the cells, and transferred this supernatant to fresh cells, which were then exposed for 24 hours. […] In contrast, when supernatant was transferred after prior one-hour incubation, colony-forming ability of receiving cells was 48% in cells receiving TMZ-containing supernatant, and 22% in TMZ-POH-containing supernatant.
To exclude the involvement of cellular enzymes in the turnover of TMZ-POH, we incubated TMZ-POH (and TMZ) in phosphate-buffered saline at 37° C. for one hour (in the absence of cells). After this pre-incubation, TMZ-POH and TMZ were added to cells for 24 hours, and survival was determined by CFA. As a control, both drugs were also added to cells without prior incubation in aqueous solution. A representative CFA is shown in FIG. 26C, where the middle panel confirms that both drugs were used at approximately equipotent concentrations; i.e., when added straight to cells, they reduced survival by ˜95%. However, pre-incubation in aqueous solution for only one hour preempted the cytotoxic potency of TMZ by about 50%, but that of TMZ-POH much less (80% remaining; see right panel).

Data set [1] concerns D3H2LN cells implanted into the brains. The experiment in a line: Intracranial breast cancer tumor model in nude mice. The data set is classed as in vivo. Particulars: for median survival: TMZ-POH s.c., TMZ via gavage. From the text:
In FIG. 27A, all surviving animals were imaged again on days 21, 28, and 36. […] Arrow labeled Rx indicates the time period of treatment.
All animal protocols were approved by the Institutional Animal Care and Use Committee (IACUC) of University of Southern California, and all rules and regulations were followed during experimentation on animals. Athymic mice (Harlan, Inc., Indianapolis, Ind.) were implanted intracranially with 2×10^5 cells. A subline of MDA-MB-231 cells called D3H2LN was used, which was transfected with the firefly luciferase gene and had been selected for aggressive growth and metastasis in vivo. Ten days after intracranial implantation, efficient tumor take was confirmed in all animals via non-invasive whole-body bioluminescent imaging. For this purpose, mice were intravenously injected with 50 mg/kg D-Luciferin (Perkin Elmer, Waltham, Mass.) and imaged using the Xenogen IVIS-200 Imaging System (Caliper/Perkin Elmer). Images were analyzed by region-of-interest (ROI) analysis using the Living Image software package (Caliper/Perkin Elmer) to quantitate light output (radiance, i.e., photons per second per square centimeter per steradian).
Group 1 was the control group that received vehicle only (45% glycerol, 45% ethanol, 10% DMSO) via subcutaneous injection. Group 2 was the experimental group that received 25 mg/kg TMZ-POH via subcutaneous (s.c.) injection. Group 3 was the comparison group and animals received 25 mg/kg TMZ via gavage. Treatment was once per day for a period of 10 days (i.e., 10 treatments total). Thereafter, all surviving animals were imaged again, once per week.
We used D3H2LN cells, which are a bioluminescent variant of the MDA-MB-231 cell line with aggressive tumor growth in mice. These cells were implanted into the brains of nude mice, and 10 days later all animals were imaged for luciferase expression in order to confirm efficient tumor take.
Animals were distributed into three groups and treated once daily for 10 days with vehicle alone (control), 25 mg/kg TMZ-POH, or 25 mg/kg TMZ.

Setting [2] is: 25 mg/kg once daily for 10 days.

In the case of `Cn1nnc2c(C(N)=O)ncn2c1=O` [TMZ, temozolomide, reference compound], the IC50 in the data set with T47D (T47D) is 20 µM. Also, in the data set on MDA-MB-231 cells (15 μM TMZ-POH or 30 μM TMZ), the colony survival is recorded as approximately 8%, the “reduction of colony formation” value is more than 50%, the survival is reported as 23% and the reduction of survival was approximately 95%. Further, in the data set with MDA-MB-231 cells, the “colony-forming ability of receiving cells” value amounted to 48%. Besides, in data set [1] (setting [2]), the “additional survival after the termination of treatment” value was 8 days and the median survival worked out at 28 days.

On to `C=C(C)[C@@H]1CC=C(COC(=O)NC(=O)c2ncn3c(=O)n(C)nnc23)CC1` [TMZ-POH], for which the IC50 in the data set with T47D (T47D) was 4.6 µM. Further, the “Differential (−fold)” value with T47D (fold increase in potency of TMZ-POH compared to TMZ, T47D) is on record as 4.3 −fold. In addition, the “colony formation (CFA)” value with T47D (low micromolar concentrations, 48 hours, in words) is “prevented colony formation”. In addition, in the data set on MDA-MB-231 cells (15 μM TMZ-POH or 30 μM TMZ), the “time required to exert maximum toxicity” value is more than 4 h, the colony survival entry is reported as “about 3%”, the “reduction of colony formation” value came out at 20% and the survival was determined as 51%. In the data set on MDA-MB-231 cells (15 μM TMZ-POH or 30 μM TMZ), this molecule yielded a reduction of survival of approximately 95%. Further, the “stability / retention of cytotoxic potency” value in the data set on MDA-MB-231 cells (in words) is given as “retained its cytotoxic potency substantially longer than TMZ; also recorded: more stable than TMZ”. In addition, the “cytotoxic potency remaining after pre-incubation” value with MDA-MB-231 cells (phosphate-buffered saline at 37° C. for one hour, absence of cells) stood at 80%. Also, the “cytotoxic activity of supernatant transferred after prior 24-hours of incubation” value with MDA-MB-231 cells (receiving cells exposed 24 hours, in words) was “no cytotoxic activity remained”. Moreover, the “colony-forming ability of receiving cells” value in the data set on MDA-MB-231 cells was 22%. In data set [1] (setting [2]), the “additional survival after the termination of treatment” value amounted to 30 days and the median survival is 50 days. Further, in data set [1] (25 mg/kg once daily for 10 days, in words), the “status of animals by day 36” value is “still alive with no obvious signs of distress”. For the same molecule, the “bioluminescent imaging after 10-day treatment period” value in data set [1] (25 mg/kg once daily, in words) is “only small changes in radiance”. Besides, the “increase of ROI radiance” value in data set [1] (between days 10 and 21, representative mouse, 25 mg/kg once daily 10 days) amounted to 1.7 fold. For the same molecule, the ROI radiance in data set [1] (day 10, representative mouse) was 1.11E7 photons per second per square. The ROI radiance in data set [1] (day 21, representative mouse) was 1.92E7 photons per second per square. Further, in data set [1] (day 43, representative mouse), the ROI radiance is given as 1.88E8 photons per second per square.
